Where only a bound is given, the exact number is not on record here.

Assay [1] deals with Sodium channel protein type 5 subunit alpha (Homo sapiens, UniProt Q14524). It is filed as functional, cell-based.
Assay [2] addresses Synaptic vesicular amine transporter (Rattus norvegicus, UniProt Q01827). It is filed as functional.
The target of assay [3] is T1, 5-hydroxytryptamine receptor 1A (Homo sapiens, UniProt P08908).
T1 sequence (P08908 whole entry): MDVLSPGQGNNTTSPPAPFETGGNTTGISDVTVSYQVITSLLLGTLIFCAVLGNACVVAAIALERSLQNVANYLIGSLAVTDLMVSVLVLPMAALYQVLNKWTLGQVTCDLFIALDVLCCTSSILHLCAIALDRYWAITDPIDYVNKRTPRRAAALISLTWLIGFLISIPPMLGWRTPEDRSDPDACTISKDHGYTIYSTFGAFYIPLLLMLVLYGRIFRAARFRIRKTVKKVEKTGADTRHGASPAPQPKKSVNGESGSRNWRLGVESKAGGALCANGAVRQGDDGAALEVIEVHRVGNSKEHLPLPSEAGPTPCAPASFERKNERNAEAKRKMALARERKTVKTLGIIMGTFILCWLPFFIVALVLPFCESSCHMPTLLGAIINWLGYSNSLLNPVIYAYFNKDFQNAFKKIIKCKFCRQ
Note: assay procedure not described here.

Sodium channel protein type 5 subunit alpha, sequence (Q14524 whole entry): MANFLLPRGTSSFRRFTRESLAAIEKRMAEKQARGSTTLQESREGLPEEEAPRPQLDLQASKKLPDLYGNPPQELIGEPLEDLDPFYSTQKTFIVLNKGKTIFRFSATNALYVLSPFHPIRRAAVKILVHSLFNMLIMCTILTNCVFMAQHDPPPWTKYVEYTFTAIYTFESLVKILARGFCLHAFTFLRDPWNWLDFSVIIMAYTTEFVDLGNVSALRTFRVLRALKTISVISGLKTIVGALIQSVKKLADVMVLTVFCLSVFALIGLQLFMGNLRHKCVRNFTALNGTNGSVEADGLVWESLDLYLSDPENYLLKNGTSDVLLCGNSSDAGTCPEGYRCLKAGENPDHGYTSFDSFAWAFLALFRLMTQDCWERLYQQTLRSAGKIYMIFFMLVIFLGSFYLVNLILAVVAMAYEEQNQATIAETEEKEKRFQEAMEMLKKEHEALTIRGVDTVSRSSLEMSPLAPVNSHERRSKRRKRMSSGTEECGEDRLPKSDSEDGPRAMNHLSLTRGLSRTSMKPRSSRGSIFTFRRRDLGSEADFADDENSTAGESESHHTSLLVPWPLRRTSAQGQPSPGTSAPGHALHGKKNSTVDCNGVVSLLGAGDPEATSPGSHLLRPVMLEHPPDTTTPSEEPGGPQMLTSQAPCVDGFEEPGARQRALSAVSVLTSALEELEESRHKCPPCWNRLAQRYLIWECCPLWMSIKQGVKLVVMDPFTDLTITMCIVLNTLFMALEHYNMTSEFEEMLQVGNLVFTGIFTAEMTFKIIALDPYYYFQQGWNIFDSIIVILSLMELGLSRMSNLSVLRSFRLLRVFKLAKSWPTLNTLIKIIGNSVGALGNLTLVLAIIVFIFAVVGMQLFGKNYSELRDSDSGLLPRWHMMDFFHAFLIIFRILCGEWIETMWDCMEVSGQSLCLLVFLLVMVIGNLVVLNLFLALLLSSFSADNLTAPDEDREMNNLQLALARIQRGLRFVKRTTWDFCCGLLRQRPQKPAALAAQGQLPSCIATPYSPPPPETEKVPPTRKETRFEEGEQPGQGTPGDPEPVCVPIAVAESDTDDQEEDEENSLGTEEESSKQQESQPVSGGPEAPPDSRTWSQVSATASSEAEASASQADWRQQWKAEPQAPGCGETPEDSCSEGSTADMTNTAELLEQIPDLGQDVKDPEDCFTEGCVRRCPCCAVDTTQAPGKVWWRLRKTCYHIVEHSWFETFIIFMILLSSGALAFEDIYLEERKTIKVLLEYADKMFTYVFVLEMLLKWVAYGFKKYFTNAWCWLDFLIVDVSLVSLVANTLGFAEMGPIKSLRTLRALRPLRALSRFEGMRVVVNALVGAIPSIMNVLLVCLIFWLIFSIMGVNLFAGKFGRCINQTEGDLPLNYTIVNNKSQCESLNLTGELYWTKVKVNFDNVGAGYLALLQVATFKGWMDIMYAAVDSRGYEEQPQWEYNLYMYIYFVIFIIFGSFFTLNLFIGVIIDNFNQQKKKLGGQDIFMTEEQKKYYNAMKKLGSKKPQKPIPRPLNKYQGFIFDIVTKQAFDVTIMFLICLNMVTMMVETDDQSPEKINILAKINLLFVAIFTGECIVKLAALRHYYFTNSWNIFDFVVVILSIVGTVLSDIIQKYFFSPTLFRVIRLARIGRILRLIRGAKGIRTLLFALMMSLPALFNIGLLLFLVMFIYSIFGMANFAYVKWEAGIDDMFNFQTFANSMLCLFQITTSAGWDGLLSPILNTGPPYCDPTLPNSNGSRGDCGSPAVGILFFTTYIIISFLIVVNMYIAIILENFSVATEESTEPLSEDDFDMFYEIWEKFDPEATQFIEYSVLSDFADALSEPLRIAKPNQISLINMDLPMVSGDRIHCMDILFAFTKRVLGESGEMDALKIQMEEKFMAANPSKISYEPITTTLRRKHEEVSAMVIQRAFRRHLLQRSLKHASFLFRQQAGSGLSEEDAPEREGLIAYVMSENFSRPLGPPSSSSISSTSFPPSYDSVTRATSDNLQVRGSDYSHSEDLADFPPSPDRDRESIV
Synaptic vesicular amine transporter, sequence (Q01827 whole entry): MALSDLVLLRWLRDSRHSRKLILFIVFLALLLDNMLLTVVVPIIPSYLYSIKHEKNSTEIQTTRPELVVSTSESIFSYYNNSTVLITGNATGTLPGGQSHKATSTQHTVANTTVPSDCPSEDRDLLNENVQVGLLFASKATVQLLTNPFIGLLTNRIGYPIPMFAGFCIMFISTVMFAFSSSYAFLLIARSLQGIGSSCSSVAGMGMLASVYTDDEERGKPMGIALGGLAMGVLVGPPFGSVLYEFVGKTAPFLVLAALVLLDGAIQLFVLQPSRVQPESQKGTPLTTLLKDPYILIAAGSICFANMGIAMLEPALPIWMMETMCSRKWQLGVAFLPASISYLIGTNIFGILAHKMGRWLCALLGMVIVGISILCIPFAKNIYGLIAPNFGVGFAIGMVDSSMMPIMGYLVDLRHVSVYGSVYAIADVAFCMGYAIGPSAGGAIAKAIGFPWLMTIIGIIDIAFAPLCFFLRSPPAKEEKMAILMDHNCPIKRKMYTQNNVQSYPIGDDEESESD

`CCOC(=O)N[C@@H]1CC[C@@H]2[C@@H](C1)C[C@H]1C(=O)O[C@H](C)[C@H]1[C@H]2/C=C/c1ccc(-c2cccc(F)c2)cn1` [VORAPAXAR]: the AC50 in assay [1] was over 50 µM; in assay [2], 1300 nM; in assay [3], over 30 µM.

Broadly, the AC50 is the midpoint of the concentration-response curve, whichever way the signal moves. A high value points to weaker potency.

The values above are taken from ChEMBL document CHEMBL5291721, “A preclinical secondary pharmacology resource illuminates target-adverse drug reaction associations of marketed drugs” (Nat Commun, 2023).
